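Exposure lasted 48 hours, with cells grown in 96-well plates and compounds tested at five concentrations. TGI denotes the concentration required for complete inhibition of growth.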
Legend:
Test in all cases: NCI tumour cell line growth inhibition, 48 h
[1] = tested on: MALME-3M melanoma
[2] = tested on: HCC-2998 colon
[3] = tested on: NCI-H23 lung
[4] = tested on: SK-OV-3 ovarian
[5] = tested on: OVCAR-4 ovarian
[6] = tested on: DMS 114 small cell lung
[7] = tested on: SNB-75 CNS
[8] = tested on: SF-539 CNS
[9] = tested on: HOP-62 NSCLC
[10] = tested on: SN12C renal
[11] = tested on: SK-MEL-2 melanoma
[12] = tested on: HOP-92 NSCLC
[13] = tested on: RPMI-8226 leukemia
[14] = tested on: UACC-62 melanoma
[15] = tested on: M19-MEL melanoma
[16] = tested on: IGROV1 ovarian
[17] = tested on: K-562 leukemia
[18] = tested on: CCRF-CEM leukemia
[19] = tested on: SK-MEL-28 melanoma
[20] = tested on: NCI-H226 lung
[21] = tested on: SNB-78 CNS
[22] = tested on: DLD-1 colon
[23] = tested on: UO-31 renal
[24] = tested on: 786-0 renal
[25] = tested on: M14 melanoma
[26] = tested on: MOLT-4 leukemia
[27] = tested on: NCI-H522 lung
[28] = tested on: LXFL 529 NSCLC
[29] = tested on: SR leukemia
[30] = tested on: SF-268 CNS
[31] = tested on: XF 498 CNS
[32] = tested on: NCI-H460 lung
[33] = tested on: HCT-116 colon
[34] = tested on: CAKI-1 renal
[35] = tested on: RXF-631 renal
[36] = tested on: COLO 205 colon
[37] = tested on: A498 renal
[38] = tested on: HL-60(TB) leukemia
[39] = tested on: DMS 273 small cell lung
[40] = tested on: SNB-19 CNS
[41] = tested on: A549 NSCLC
[42] = tested on: KM20L2 colon
[43] = tested on: OVCAR-3 ovarian
[44] = tested on: RXF 393 renal
[45] = tested on: UACC-257 melanoma
[46] = tested on: U251 CNS
[47] = tested on: TK-10 renal
[48] = tested on: SK-MEL-5 melanoma
[49] = tested on: ACHN renal
[50] = tested on: HOP-18 NSCLC
[51] = tested on: SW-620 colon
[52] = tested on: HCT-15 colon
[53] = tested on: KM12 colon
[54] = tested on: OVCAR-8 ovarian

Measured: TGI

CCN(CC)C1CC(n2cc(C)c(=O)[nH]c2=O)OC1CO (centres undefined)
not listed: [40] | [41] | [42] | [43] | [44] | [45] | [46] | [47] | [48] | [49] | [50] | [51] | [52] | [53] | [54]
> 100 µM: all other assays above

CC(=O)O[C@@H]1C2C(=O)OC(=O)C2C2CCC[C@]23O[C@H]13 (some centres undefined)
not listed: [3] | [12] | [31] | [35]
> 100 µM: all other assays above
